Reference: PMC12276035, “Novel Para‐Phenylenediamine‐Based Derivatives as Receptor Tyrosine Kinase‐like Orphan Receptor 1 (ROR1) Inhibitors: An In Vitro Preliminary Characterization” (Chemmedchem, 2025)
Where two headings read alike, the source gives them in different places.

Tests used:
ROR1 kinase domain = target: T1, ROR1 kinase domain (Homo sapiens, UniProt Q01973); assay: SPR assay on ROR1 kinase domain; type: binding
T1 construct: recombinant human ROR1 protein (aa 453‐783, His&GST Tag); His; GST; purchased Elabscience
T1 sequence (Q01973 453-783): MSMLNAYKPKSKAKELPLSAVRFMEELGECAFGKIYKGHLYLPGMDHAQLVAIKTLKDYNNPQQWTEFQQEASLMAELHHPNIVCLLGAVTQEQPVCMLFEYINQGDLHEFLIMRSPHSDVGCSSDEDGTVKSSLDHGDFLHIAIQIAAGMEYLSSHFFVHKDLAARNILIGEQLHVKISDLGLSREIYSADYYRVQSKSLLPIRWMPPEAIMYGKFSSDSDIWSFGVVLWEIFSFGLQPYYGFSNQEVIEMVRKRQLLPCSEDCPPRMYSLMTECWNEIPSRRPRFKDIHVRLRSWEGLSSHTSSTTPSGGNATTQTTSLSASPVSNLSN
Description: We performed molecular docking experiments to explore the binding mode of novel derivatives using the crystallographic structure of the protein co‐complexed with ponatinib, a known inhibitor of ROR1 (PDB code: 6TU9).^[ [30] ^] […] To evaluate the affinity of the synthesized molecules (10, 13, 14, 17–21, 26–29) for the protein counterpart, SPR assay was performed against kinase domain ROR1. Protein immobilization was achieved using the amide coupling method, and the molecules were tested at 10 different concentrations, ranging from 0 to 100 μM. Ponatinib was used as a positive control^[ [30] ^] (Table 1 ).
SPR spectroscopy analyses were conducted to evaluate the binding affinity of the synthesized compounds against ROR1 receptor using a Biacore T200 optical biosensor equipped with research‐grade CM5 sensor chips (Cytiva, Marlborough, USA). ROR1 kinase domain was immobilized on the CM5 sensor chip surface following standard amine‐coupling protocols. Specifically, kinasic domain was immobilized at pH 4.5 10 mM CH3COONa using a flow rate of 10 μL min^−1, achieving a density of around 20 kRU.
For the experiments, surfaces of ROR1, along with an unmodified reference surface, were prepared for simultaneous analyses. […] The compounds were injected in a series of concentrations (1:2 dilution, 10 different concentrations), spanning from 0 to 100 μM. The concentration series were prepared in 96‐well plates. SPR experiments were conducted at 25 °C, with a flow rate of 20 μL min^−1, allowing for 90 s of association monitoring and 400 s of dissociation monitoring. Changes in mass, reflective of the binding response, were recorded as resonance units (RU). K D values were determined using the Biaevaluation software performing a global fit of the double‐referenced association and dissociation data to a 1:1 interaction model^[ [43] ^] (see Figure S38, Supporting Information).

SH‐SY5Y cells = assay: MTT cell viability assay, SH‐SY5Y; type: cell-based; conditions: Homo sapiens, cytotoxicity, treated for 72 h, read-out: EC50 ± SD SH‐SY5Y
Description: (§1) Cytotoxicity studies, assessing the activity of the synthetized compounds, were performed only on the molecules showing the best binding profile in the SPR assay. MTT test was performed on two cell lines known for overexpressing ROR1, particularly MTT assays were conducted on JeKo‐1 (human mantle cell lymphoma) and SH‐SY5Y (neuroblastoma), exposing them to different concentrations of compounds for 72 h (Table 2 ). […] This increased effectiveness is likely due to the high expression of the target protein in leukemia and other hematologic malignancies. […] A key structural difference in 18 and 19 compared to active compounds is the absence of the trifluoromethyl group on the aromatic ring. Indeed, the removal of the trifluoromethyl group (18) or the incorporation of an electron‐donating substituent (19) alters the interaction with the ATP‐binding pocket.
The neuroblastoma SH‐SY5Y cells, a human neuroblastoma cell line of neural crest origin, were obtained from ATCC and were grown in DMEM supplemented with 10% v/v fetal bovine serum, 2 mM L‐glutamine, 100 U mL^−1 penicillin, and 0.1 mg mL^−1 streptomycin.
(§2) Cell viability was established by measuring mitochondrial metabolic activity with MTT. In brief, SH‐SY5Y (20 × 10^3 cells/well) and JeKo‐1 (10 × 10^3 cells/well) were plated into 96‐well plates for 24 h, then the compounds (1.56–50 μM) were added. […], cells were replaced with a fresh medium containing 0.5 mg mL^−1 MTT.^[ [45] ^] Cells were incubated for 1–3 h at 37 °C, then the medium was discarded, and formazan blue crystals in the cells dissolved with 100 μL per well of a solution containing isopropanol/HCl 0.1 M. The absorbance was measured at 570 nm using a microplate reader (Multiskan Go, Thermo Scientific, Waltham, MA, USA). Cell viability was expressed as a percentage relative to the untreated cells cultured in medium with 0.1% DMSO and set to 100%, whereas 10% DMSO was used as positive control and set to 0% of viability. The EC50 values were calculated using GraphPad Prism 8.0 software by nonlinear regression of dose‐response inhibition.

JeKo‐1 cells [1] = assay: MTT cell viability assay, JeKo‐1; type: cell-based; conditions: Homo sapiens, cytotoxicity, treated for 72 h, read-out: EC50 ± SD JeKo‐1
Description: as §1
The JeKo‐1 mantle cell lymphoma (MCL) cell line, derived from mantle cell lymphoma of B‐cell lineage, was obtained from ATCC and was grown in RPMI supplemented with 10% v/v fetal bovine serum, 2 mM L‐glutamine, 100 U mL^−1 penicillin, and 0.1 mg mL^−1 streptomycin.
as §2

JeKo‐1 cells [2] = assay: Annexin V‐FITC/PI staining apoptosis, flow cytometry; type: cell-based, human; conditions: JeKo‐1, 20 μM, 72 h, early and late apoptosis
From the text: This observation aligns with previous studies reporting that ROR1 is highly expressed in B‐cell malignancies, including mantle cell lymphoma, where it plays a crucial role in survival signaling and resistance to apoptosis.^[ [10], [32] ^] Given the higher susceptibility of JeKo‐1 cells to the inhibitor, we selected this model for further apoptotic analysis. However, for completeness, apoptotic data for the SH‐SY5Y cell line are also provided in the Supporting Information (Figure S39, Supporting Information). Specifically, cells were incubated with compounds 17, 20, or 29 (20 μM) for 72 h and a flow cytometry analysis using Annexin V/PI staining was performed. After treatment, a very strong increase in the apoptotic response was observed, in both early and late apoptotic populations compared to the negative control (Figure 4 ). […] These findings are in accordance with the literature and further support the potential of ROR1 inhibition in promoting cell death in mantle cell lymphoma.^[ [33] ^]
Figure 4 Proapoptotic activity of compounds 17, 20, and 29 (20 μM) on JeKo‐1 cells treated for 72 h. A) Representative flow cytometry plots using Annexin V‐FITC/PI staining for apoptosis. B) Related quantitative analysis is reported. Data are expressed as a percentage of live, apoptotic, and necrotic cells. Results are shown as mean ± standard deviation (SD) from three independent experiments. *** denote p < 0.001 versus Ctrl.
Apoptosis of the cells was assessed using annexin V‐FITC/PI reagents. JeKo‐1 cells (60 × 10^3 cells/well) were seeded into 24‐well plates and incubated for 72 h with compounds (20 and 10 μM). After treatment, the collected cells were resuspended in a 100 μL assay buffer, then 5 Annexin V‐FITC and 1 PI reagents were added following incubation for 20 min at room temperature according to the manufacturer's protocol (Dead Cell Apoptosis Kits with Annexin V for Flow Cytometry, Thermo Fisher Scientific). Cells were analyzed with a Becton Dickinson FACScan flow cytometer using the Cell Quest software, version 4 (Franklin Lakes, NJ, USA).^[ [46] ^]

[3] = SPR, KD ± SD, 0 to 100 μM, 25 °C, n.b. = no binding
[4] = SPR, KD ± SD, 0 to 100 μM, 25 °C, n.b. = no binding, read-out: Kinase domain KD

| SMILES | Kinase domain KD (ROR1 kinase domain; [3]) | Kd (ROR1 kinase domain; [4]) | EC50 (SH‐SY5Y cells) | EC50 (JeKo‐1 cells [1]) | other results |
| --- | --- | --- | --- | --- | --- |
| Nc1ccc(CNc2ccc(NS(=O)(=O)c3ccc(-c4ccccc4)cc3)c(C(F)(F)F)c2)cc1 [Compound 26] | n.b. | – | – | – | – |
| N#CCCNc1ccc(NC(=O)NCc2ccc(-c3ccccc3)cc2)c(C(F)(F)F)c1 [Compound 10] | n.b. | – | – | – | – |
| COc1cc(NCC2CCNCC2)ccc1NC(=O)NCc1ccc(-c2ccccc2)cc1 [Compound 19] | – | 15 ± 2.47 µM | > 50 µM | > 50 µM | – |
| Cc1ccc(C(=O)Nc2ccc(CN3CCN(C)CC3)c(C(F)(F)F)c2)cc1C#Cc1cnc2cccnn12 [Ponatinib, 3‐(2‐imidazo[1,2‐b]pyridazin‐3‐ylethynyl)‐4‐methyl‐N‐[4‐[(4‐methylpiperazin‐1‐yl)methyl]‐3‐(trifluoromethyl)phenyl]benzamide, reference compound] | – | – | 4.25 ± 3.92 µM | 1.69 ± 1.03 µM | Kd (ROR1 kinase domain): 2.9 ± 0.85 µM |
| O=C(Nc1ccc(NCC2CCNCC2)cc1C(F)(F)F)c1ccc(-c2ccccc2)cc1 [Compound 28] | n.b. | – | – | – | – |
| O=S(=O)(Nc1ccc(NCC2CCNCC2)cc1C(F)(F)F)c1ccc(-c2ccccc2)cc1 [Compound 27] | n.b. | – | – | – | – |
| N#CCCNc1ccc(NC(=O)NCc2ccc(C(F)(F)F)cc2)cc1 [Compound 14] | n.b. | – | – | – | – |
| O=C(NCc1ccc(-c2ccccc2)cc1)Nc1ccc(NC2CCNCC2)cc1C(F)(F)F [Compound 29] | – | 13.4 ± 1.92 µM | 18.5 ± 2.65 µM | 13.9 ± 2.75 µM | apoptotic cells (JeKo‐1 cells [2]): 73.15 ± 2.76% |
| Nc1ccc(CNc2ccc(NC(=O)NCc3ccc(-c4ccccc4)cc3)c(C(F)(F)F)c2)cc1 [Compound 21] | n.b. | – | – | – | – |
| NCCCNc1ccc(NC(=O)NCc2ccc(-c3ccccc3)cc2)c(C(F)(F)F)c1 [Compound 20] | – | 16.7 ± 2.86 µM | 14.2 ± 4.81 µM | 11.3 ± 3.15 µM | apoptotic cells (JeKo‐1 cells [2]): 94.50 ± 3.12% |
| O=C(NCc1ccc(-c2ccccc2)cc1)Nc1ccc(NCC2CCNCC2)cc1 [Compound 18] | – | 18.4 ± 3.14 µM | > 50 µM | > 50 µM | – |
| O=C(NCc1ccc(-c2ccccc2)cc1)Nc1ccc(NCc2ccncc2)cc1C(F)(F)F [Compound 13] | n.b. | – | – | – | – |
